Test results published in US20070253907A1, “Non Human Transgenic Animal as Model of Neurodegenerative Diseases and for the Early Diagnosis Thereof” (priority 2004, published 2007).
“Also recorded” adds a separate entry of the source.

Tested on: VK-AD11 mice
Assay: Reversal of the neurodegenerative phenotype of VK-AD11 mice by intranasal NGF administration
Assay type: in vivo
Settings: VK-AD11 mice from 4 months of age, NGF 10 μM solution intranasally every 2 days
Protocol: All experiments were conducted in mice starting from 4 months of age, when neurodegeneration is not so readily apparent. NGF was administered by intranasal injection (Frey et al., 1997) conducted every 2 days. NGF was administered as a 10 μM solution in phosphate buffer pH 7.4, injecting 3 μl per nostril every 2 min and alternating nostrils. The VK-AD11 control mice and non transgenic mice were treated only with phosphate buffer. For each administration, the infusion lasted 30 min. This non invasive method for administering NGF allows to avoid the use of the intraventricular injections to apply NGF directly to the cerebral tissue.
To verify the administration of NGF, the mice were sacrificed 2 months from the begining of the treatment. The brain was removed and fixed in paraformaldehyde to conduct histological analyses.

NGF: Nerve Growth Factor, administered intranasally as a 10 μM solution in phosphate buffer pH 7.4
cholinergic deficit (histology 2 months from beginning of treatment (FIG. 18A)): improves; also recorded: a similar phenotype to that of the non transgenic control mice was re-established
deposition of β-amyloid (number of cells containing β-amyloid) (histology 2 months from beginning of treatment (FIG. 18B)): decreases; also recorded: a similar phenotype to that of the non transgenic control mice was re-established
hyperphosphorylated tau (number of cells that express phosphorylated tau) (histology 2 months from beginning of treatment (FIG. 18C)): decreases; also recorded: a similar phenotype to that of the non transgenic control mice was re-established
